Test system: subcutaneous prostate cancer model (PC3)
Test: Tumour specific uptake of Evans Blue after ACT, variable Enhancement MI
Format: in vivo, mice
Conditions: cluster composition 2 mL/kg i.v.; Enhancement 0.5 MHz, MI 0, 0.1, 0.2, 0.3, 0.4; tumours excised 30 min after treatment
Protocol: To investigate the effect of MI variance of the US Enhancement field, tumour specific uptake of Evans Blue (EB, fluorescent dye) has been investigated in a subcutaneous prostate cancer model (PC3) in mice. Five groups with Enhancement insonation MIs of 0, 0.1, 0.2, 0.3 and 0.4 were investigated (N=3 animals per group). […] 30 min after treatment, the tumors were excised and the amount of EB was measured by spectrophotometry at 620 nm.

Structure (SMILES): Cc1cc(-c2ccc(/N=N/c3ccc4c(S(=O)(=O)O)cc(S(=O)(=O)O)c(N)c4c3O)c(C)c2)ccc1/N=N/c1ccc2c(S(=O)(=O)O)cc(S(=O)(=O)O)c(N)c2c1O [Evans Blue]
- tissue uptake of Evans Blue as a function of Enhancement MI: increases from no US (MI=0) to MI=0.1 and further with MI=0.2, but then drops again with MI=0.3
